Measurements from PMC3469417, “Loss of Slc4a1b Chloride/Bicarbonate Exchanger Function Protects Mechanosensory Hair Cells from Aminoglycoside Damage in the Zebrafish Mutant persephone” (PLoS Genetics, 2012).

How the values were obtained:
human SLC4A1 (hSlc4a1) = biological target: T1, human SLC4A1 (hSlc4a1) (Homo sapiens, UniProt P02730); experiment: […]- influx in Xenopus oocytes; type: cell-based; details: 200 µM DIDS; inhibitor; bath Cl- 103.6 mM, pH 7.4; disodium salt
T1 construct: expressed in Xenopus laevis oocytes
T1 sequence (P02730 1-911): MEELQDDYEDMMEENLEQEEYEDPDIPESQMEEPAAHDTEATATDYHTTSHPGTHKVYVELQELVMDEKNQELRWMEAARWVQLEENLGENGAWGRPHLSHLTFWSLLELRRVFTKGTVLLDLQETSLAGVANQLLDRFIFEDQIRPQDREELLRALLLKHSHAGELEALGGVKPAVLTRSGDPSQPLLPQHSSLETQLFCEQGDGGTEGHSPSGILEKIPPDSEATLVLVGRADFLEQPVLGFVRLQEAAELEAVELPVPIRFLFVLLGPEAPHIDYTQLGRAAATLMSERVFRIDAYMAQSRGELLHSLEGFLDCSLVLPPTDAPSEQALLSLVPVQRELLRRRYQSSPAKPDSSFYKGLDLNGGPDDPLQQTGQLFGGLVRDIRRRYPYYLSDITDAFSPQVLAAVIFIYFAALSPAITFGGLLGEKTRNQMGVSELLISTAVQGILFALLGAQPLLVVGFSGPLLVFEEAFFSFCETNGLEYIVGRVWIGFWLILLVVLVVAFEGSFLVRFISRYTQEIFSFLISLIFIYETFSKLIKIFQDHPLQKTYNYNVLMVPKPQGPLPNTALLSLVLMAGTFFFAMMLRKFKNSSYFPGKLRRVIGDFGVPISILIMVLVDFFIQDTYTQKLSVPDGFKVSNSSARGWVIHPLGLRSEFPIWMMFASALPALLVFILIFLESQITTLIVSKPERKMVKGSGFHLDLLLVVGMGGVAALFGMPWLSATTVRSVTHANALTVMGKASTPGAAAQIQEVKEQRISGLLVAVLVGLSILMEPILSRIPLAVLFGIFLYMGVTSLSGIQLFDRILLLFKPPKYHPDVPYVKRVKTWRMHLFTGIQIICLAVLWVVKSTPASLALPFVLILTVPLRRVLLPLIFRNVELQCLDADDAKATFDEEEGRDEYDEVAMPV

[1] = biological target: T2, zebrafish Slc4a1b (zSlc4a1b) (Danio rerio, UniProt D1FTM8); experiment: […]- influx in Xenopus oocytes; type: cell-based; details: 200 µM DIDS; inhibitor; bath Cl- 103.6 mM, pH 7.4; disodium salt
T2 construct: cRNA expressed in Xenopus laevis oocytes
T2 sequence (D1FTM8 61-851): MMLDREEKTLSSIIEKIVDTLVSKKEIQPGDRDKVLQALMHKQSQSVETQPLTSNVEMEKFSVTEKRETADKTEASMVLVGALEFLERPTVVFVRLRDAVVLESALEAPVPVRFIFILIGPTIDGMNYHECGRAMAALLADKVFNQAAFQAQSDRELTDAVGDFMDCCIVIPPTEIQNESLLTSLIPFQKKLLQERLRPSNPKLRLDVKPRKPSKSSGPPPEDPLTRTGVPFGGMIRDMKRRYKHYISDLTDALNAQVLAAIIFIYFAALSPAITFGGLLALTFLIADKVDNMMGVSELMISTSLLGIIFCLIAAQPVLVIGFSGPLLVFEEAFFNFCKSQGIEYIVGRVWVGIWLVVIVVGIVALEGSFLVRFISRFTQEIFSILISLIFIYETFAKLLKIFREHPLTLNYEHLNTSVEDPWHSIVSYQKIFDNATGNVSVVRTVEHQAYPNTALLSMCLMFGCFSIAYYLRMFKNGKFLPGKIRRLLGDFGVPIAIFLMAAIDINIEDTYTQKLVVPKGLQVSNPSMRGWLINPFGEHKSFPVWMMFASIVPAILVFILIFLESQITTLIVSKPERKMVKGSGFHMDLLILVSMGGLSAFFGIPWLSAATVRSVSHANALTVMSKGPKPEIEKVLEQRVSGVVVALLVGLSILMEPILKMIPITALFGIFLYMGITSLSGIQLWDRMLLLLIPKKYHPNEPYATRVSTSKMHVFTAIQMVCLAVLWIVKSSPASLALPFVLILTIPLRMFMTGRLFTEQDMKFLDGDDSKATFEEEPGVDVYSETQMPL

O=S(=O)(O)c1cc(N=C=S)ccc1/C=C/c1ccc(N=C=S)cc1S(=O)(=O)O [DIDS, 4,4′-diisothiocyano-2,2′-stilbenedisulfonic acid]
36Cl- influx in Xenopus oocytes (human SLC4A1 (hSlc4a1)): zebrafish Slc4a1b and by human SLC4A1 was abolished by treatment with the disulfonic stilbene DIDS | 36Cl- influx in Xenopus oocytes [1]: zebrafish Slc4a1b and by human SLC4A1 was abolished by treatment with the disulfonic stilbene DIDS
